# According to the supplement of paper PMC10307832:
# Tests used:
# Test in all cases: relative viability (nuclei count vs DMSO), 5 days (fraction); higher = more cells survive
# [1] = compound: C1/C(=C\C2=CC=CS2)/C(=O)/C(=C/C3=CC=CS3)/C1 + NC(=O)Nc1cc(-c2cccc(F)c2)sc1C(=O)N[C@H]1CCCNC1 [AZD7762] (partner 0.2 µM)
# In short: (§1)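 Five library-drug doses in √10 steps were combined with a fixed anchor-drug dose, or a single drug was given alone, by pin tool to lung cancer cell lines in 1536-well plates the day after seeding. Nuclei were stained and counted after 5 days. Relative viability is the nuclei count in treated wells over that in vehicle wells, taken as the median of duplicate plates.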
# [2] = compound: C1/C(=C\C2=CC=CS2)/C(=O)/C(=C/C3=CC=CS3)/C1 + O=C(CCCCCCC(=O)Nc1ccccc1)NO [Vorinostat] (partner 1 µM)
# In short: as §1
# [3] = compound: C1/C(=C\C2=CC=CS2)/C(=O)/C(=C/C3=CC=CS3)/C1 + O=C(c1cc(Cc2n[nH]c(=O)c3ccccc23)ccc1F)N1CCN(C(=O)C2CC2)CC1 [Olaparib] (partner 8 µM)
# In short: as §1
# [4] = compound: C1=CC(=CC=C1C2=CC(=C(S2)NC(=O)N)C(=O)N)F [TPCA-1] + O=C(CCCCCCC(=O)Nc1ccccc1)NO [Vorinostat] (partner 1 µM)
# In short: as §1
Cell Line,relative viability ([1]; first compound 0.2 µM),relative viability ([1]; first compound 0.6325 µM),relative viability ([1]; first compound 2 µM),relative viability ([1]; first compound 6.325 µM),relative viability ([1]; first compound 20 µM),relative viability ([2]; first compound 0.2 µM),relative viability ([2]; first compound 0.6325 µM),relative viability ([2]; first compound 2 µM),relative viability ([2]; first compound 6.325 µM),relative viability ([2]; first compound 20 µM),relative viability ([3]; first compound 0.2 µM),relative viability ([3]; first compound 0.6325 µM),relative viability ([3]; first compound 2 µM),relative viability ([3]; first compound 6.325 µM),relative viability ([3]; first compound 20 µM),relative viability ([4]; first compound 0.1265 µM),relative viability ([4]; first compound 0.4 µM),relative viability ([4]; first compound 1.265 µM),relative viability ([4]; first compound 4 µM),relative viability ([4]; first compound 0.04 µM)
NCI-H2085,1.03,1.05,0.926,0.932,0.932,0.739,0.808,0.857,0.7,0.715,0.764,0.774,0.808,0.709,0.765,0.803,0.803,0.781,0.514,–
NCI-H2170,0.921,0.923,0.866,0.714,0.764,0.898,0.814,0.787,0.728,0.766,0.619,0.645,0.595,0.422,0.536,0.881,0.779,0.724,0.628,0.965
HCC-78,0.649,0.729,0.76,0.68,0.658,0.51,0.401,0.441,0.425,0.385,0.794,0.872,0.906,0.87,0.81,0.422,0.42,0.469,0.28,0.445
NCI-H1395,0.36,0.356,0.405,0.411,0.414,0.668,0.767,1.03,0.744,0.8,0.494,0.53,0.435,0.458,0.453,0.645,0.856,0.604,0.55,0.637
NCI-H2126,1.04,0.933,1.08,0.862,1,0.742,0.774,0.809,0.717,0.781,0.951,0.926,0.883,0.882,0.85,0.695,0.891,0.559,0.238,0.843
H3255,0.916,0.878,0.945,0.842,0.914,0.756,0.856,0.427,0.758,0.875,0.635,0.59,0.635,0.509,0.535,0.461,0.819,0.694,0.512,0.82
HCC-15,1.14,1.33,1.41,1.06,1.13,0.876,0.846,0.842,0.772,0.743,0.784,0.771,0.707,0.656,0.66,0.758,0.84,0.782,0.806,0.914
HCC-44,1.03,1.03,0.857,0.84,1.03,1.09,1.08,1.01,0.995,1.03,0.959,0.985,0.907,0.896,0.989,1.07,0.95,1.1,0.85,1.09
